Source: patent US20220389477A1, “METHOD FOR EVALUATING ANTIBIOTIC SUSCEPTIBILITY” (Vrije Universiteit Brussel, priority 2019, published 2022)
Converted amounts (≈) assume the structure as drawn. Like-named read-outs stand apart in the source and are kept apart here.

Columns and labels:
[1] = system: Acinetobacter Species; test: Optical third-derivative MIC method, culture in broth; type: cell-based; settings: AC/2990; for MIC: Acinetobacter
Text: (§1) The method of FIG. 1 starts at a time equal to zero, t0 (1). Preferably, said t0 is the moment a pure bacteria culture is finished being prepared. Alternatively, said t0 is the moment all wells contain both said bacteria culture and said antimicrobial drug. After the starting of the experiment each well is periodically illuminated with a light source and the intensity of the transmitted light is detected with a photodetector (2). Preferably, each well is illuminated and the intensity of the transmitted light is detected every hour (2). More preferably, each well is illuminated and the intensity of the transmitted light is detected every 5 to 15 min. After a predetermined time length, preferably after 4 hours, a first, a second and a third derivative of said measured intensity is calculated (3) in a first and a second time frame for each well. Preferably, said second time frame is the last measured time frame after the test has been running for said predetermined time length, and said first time frame is the time frame preceding the second time frame. More preferably, said first time frame is between two and three hours and said second time frame is between three and four hours. After the calculation of said derivatives, said first derivative in said second time frame of said reference well is compared to a growth speed threshold value (4). Preferably, said growth speed threshold value is 0.166 (4). If said first derivative in said second time frame of said reference well is larger than or equal to said growth speed threshold value said bacteria culture is classified as Type I (4). If said first derivative in said second time frame of said reference well is smaller than said growth speed threshold value said bacteria culture is classified as Type II (4). Subsequently, independent of the classification of the bacteria culture according to the two types, the method comprises the following steps which are performed for each well or for all wells except said reference well. Both said first and said second time frames are evaluated to see if there is an inflection point present in the second derivative in said first and/or said second time frame (5).
(§2) If said first and/or said second time frame comprise said inflection point than said third derivative in said first time frame is compared to said third derivative in said second time frame (6). If said third derivative in said first time frame is larger than said third derivative in said second time frame, then said first time frame and said second time frame are selected as a first and second time frame to be used in a minimal inhibitory concentration determination method (10). If said third derivative in said first time frame is not larger than said third derivative in said second time frame, then said well is illuminated again after a certain time period, preferably an hour, more preferably 5 to 15 min after said predetermined time length said, with a light source and the intensity of the transmitted light is detected with a photodetector forming a new time frame subsequent to said second time frame (7). A third derivative, and possibly also a first and/or a second derivative, is calculated in said new time frame (7). Further, in step (7) a new first time frame is put equal to said second time frame and a new second time frame to equal to said new time frame. Subsequently, said third derivative in said new first time frame is compared to said third derivative in said new second time frame (8). If said derivative in said new first time frame is larger than said third derivative in said new second time frame, then said new first time frame and said new second time frame are selected as a first and second time frame to be used in a minimal inhibitory concentration determination method (10). […]

[2] = system: Klebsiella pneumonia culture; test: as above; type: cell-based; settings: for HR? at MIC (25%) / HR? at MIC (40%) / HR? at MIC (60%) / HR? at MIC (75%): ratio MIC T2/T1; for MIC: Klebsiella pneumoniae
Text: as §1, §2

SMILES: C[C@@H](O)[C@H]1C(=O)N2C(C(=O)O)=C(SCCN=CN)C[C@H]12 [imipenem]
- HR? at MIC (40%) ([1]; ratio MIC T2/T1): no (If the ratio of the MIC value in the second time frame over the MIC value in the first time frame is lower than or equal to 4 then the ratio is labelled not to be heteroresistant)
- HR? at MIC (60%) ([1]; ratio MIC T2/T1): no (If the ratio of the MIC value in the second time frame over the MIC value in the first time frame is lower than or equal to 4 then the ratio is labelled not to be heteroresistant)
- HR? at MIC (75%) ([1]; ratio MIC T2/T1): no (If the ratio of the MIC value in the second time frame over the MIC value in the first time frame is lower than or equal to 4 then the ratio is labelled not to be heteroresistant)
- HR? at MIC (25%) ([1]; ratio MIC T2/T1, omitted (Type II)): yes (If the ratio of the MIC value in the second time frame over the MIC value in the first time frame is higher than or equal to 8 then the ratio is labelled to be heteroresistant)
- MIC ([1]; 2 h-3 h, omitted from determination (Type II), read-out: MIC (25%) T1): 0.25 µg/mL (≈ 0.835 µM)
- MIC ([1]; 2 h-3 h, read-out: MIC (40%) T1): 0.25 µg/mL (≈ 0.835 µM)
- MIC ([1]; 2 h-3 h, read-out: MIC (60%) T1): < 0.125 µg/mL
- MIC ([1]; 2 h-3 h, read-out: MIC (75%) T1): < 0.125 µg/mL
- MIC ([1]; 3 h-4 h, omitted from determination (Type II), read-out: MIC (25%) T2): 128 µg/mL (≈ 428 µM)
- MIC ([1]; 3 h-4 h, read-out: MIC (40%) T2): 0.25 µg/mL (≈ 0.835 µM)
- MIC ([1]; 3 h-4 h, read-out: MIC (60%) T2): < 0.125 µg/mL
- MIC ([1]; 3 h-4 h, read-out: MIC (75%) T2): < 0.125 µg/mL
- MIC ([1]; FIG. 5A, overall conclusion, read-out: MIC value determined by the method): 0.25 µg/mL (≈ 0.835 µM)
- HR? at MIC (25%) ([2]; KP/38.3002, Table 5): no (If the ratio of the MIC value in the second time frame over the MIC value in the first time frame is lower than or equal to 4 then the ratio is labelled not to be heteroresistant)
- HR? at MIC (40%) ([2]; KP/38.3002, Table 5): yes (If the ratio of the MIC value in the second time frame over the MIC value in the first time frame is higher than or equal to 8 then the ratio is labelled to be heteroresistant)
- HR? at MIC (60%) ([2]; KP/38.3002, Table 5): yes (If the ratio of the MIC value in the second time frame over the MIC value in the first time frame is higher than or equal to 8 then the ratio is labelled to be heteroresistant)
- HR? at MIC (75%) ([2]; KP/38.3002, Table 5): yes (If the ratio of the MIC value in the second time frame over the MIC value in the first time frame is higher than or equal to 8 then the ratio is labelled to be heteroresistant)
- HR? at MIC (25%) ([2]; KP/38.3002, Table 10): yes (If the ratio of the MIC value in the second time frame over the MIC value in the first time frame is higher than or equal to 8 then the ratio is labelled to be heteroresistant)
- HR? at MIC (40%) ([2]; KP/38.3002, Table 10): yes (If the ratio of the MIC value in the second time frame over the MIC value in the first time frame is higher than or equal to 8 then the ratio is labelled to be heteroresistant)
- HR? at MIC (60%) ([2]; KP/38.3002, Table 10): yes (If the ratio of the MIC value in the second time frame over the MIC value in the first time frame is higher than or equal to 8 then the ratio is labelled to be heteroresistant)
- HR? at MIC (75%) ([2]; KP/38.3002, Table 10): yes (If the ratio of the MIC value in the second time frame over the MIC value in the first time frame is higher than or equal to 8 then the ratio is labelled to be heteroresistant)
- HR? at MIC (40%) ([2]; KP/38.3002, Table 11): yes (If the ratio of the MIC value in the second time frame over the MIC value in the first time frame is higher than or equal to 8 then the ratio is labelled to be heteroresistant)
- HR? at MIC (60%) ([2]; KP/38.3002, Table 11): yes (If the ratio of the MIC value in the second time frame over the MIC value in the first time frame is higher than or equal to 8 then the ratio is labelled to be heteroresistant)
- HR? at MIC (75%) ([2]; KP/38.3002, Table 11): yes (If the ratio of the MIC value in the second time frame over the MIC value in the first time frame is higher than or equal to 8 then the ratio is labelled to be heteroresistant)
- HR? at MIC (25%) ([2]; KP/153.4346): no (If the ratio of the MIC value in the second time frame over the MIC value in the first time frame is lower than or equal to 4 then the ratio is labelled not to be heteroresistant)
- HR? at MIC (40%) ([2]; KP/153.4346): no (If the ratio of the MIC value in the second time frame over the MIC value in the first time frame is lower than or equal to 4 then the ratio is labelled not to be heteroresistant)
- HR? at MIC (60%) ([2]; KP/153.4346): yes (If the ratio of the MIC value in the second time frame over the MIC value in the first time frame is higher than or equal to 8 then the ratio is labelled to be heteroresistant)
- HR? at MIC (75%) ([2]; KP/153.4346): yes (If the ratio of the MIC value in the second time frame over the MIC value in the first time frame is higher than or equal to 8 then the ratio is labelled to be heteroresistant)
- MIC ([2]; 3 h, KP/38.3002, FIG. 5C, Table 5, 3 h-4 h, read-out: MIC (25%) T1): 16 µg/mL (≈ 53.4 µM)
- MIC ([2]; 3 h, KP/38.3002, FIG. 5C, Table 5, 3 h-4 h, read-out: MIC (40%) T1): 0.25 µg/mL (≈ 0.835 µM)
- MIC ([2]; 3 h, KP/38.3002, FIG. 5C, Table 5, 3 h-4 h, read-out: MIC (60%) T1): 0.25 µg/mL (≈ 0.835 µM)
- MIC ([2]; 3 h, KP/38.3002, FIG. 5C, Table 5, 3 h-4 h, read-out: MIC (75%) T1): 0.25 µg/mL (≈ 0.835 µM)
- MIC ([2]; 3 h, KP/153.4346, 3 h-4 h, read-out: MIC (25%) T1): > 256 µg/mL
- MIC ([2]; 3 h, KP/153.4346, 3 h-4 h, read-out: MIC (40%) T1): > 256 µg/mL
- MIC ([2]; 3 h, KP/153.4346, 3 h-4 h, read-out: MIC (60%) T1): 0.5 µg/mL (≈ 1.67 µM)
- MIC ([2]; 3 h, KP/153.4346, 3 h-4 h, read-out: MIC (75%) T1): 0.5 µg/mL (≈ 1.67 µM)
- MIC ([2]; 3 h, MP/072.3489, 3 h-4 h, read-out: MIC (25%) T1): 0.5 µg/mL (≈ 1.67 µM)
- MIC ([2]; 3 h, MP/072.3489, 3 h-4 h, read-out: MIC (40%) T1): 0.5 µg/mL (≈ 1.67 µM)
- MIC ([2]; 3 h, MP/072.3489, 3 h-4 h, read-out: MIC (60%) T1): 0.35 µg/mL (≈ 1.17 µM)
- MIC ([2]; 3 h, MP/072.3489, 3 h-4 h, read-out: MIC (75%) T1): < 0.125 µg/mL
- MIC ([2]; 4 h, KP/38.3002, FIG. 5C, Table 5, 4 h-5 h, read-out: MIC (25%) T2): 16 µg/mL (≈ 53.4 µM)
- MIC ([2]; 4 h, KP/38.3002, FIG. 5C, Table 5, 4 h-5 h, read-out: MIC (40%) T2): 8 µg/mL (≈ 26.7 µM)
